The numbers were not newly measured in patent publication US20180326089A1, “PROTEIN NANOSTRUCTURE BASED DRUG DELIVERY SYSTEM FOR THE DELIVERY OF THERAPEUTIC AGENTS TO THE ANTERIOR SEGMENT OF THE EYE” (Council of Scientific & Industrial Research, priority 2015, published 2018), which cites them from elsewhere.

As for `CC(=O)N1CCN(c2ccc(OCC3COC(Cn4ccnc4)(c4ccc(Cl)cc4Cl)O3)cc2)CC1` (stereo not shown) [Ketoconazole], the water solubility entry is given as “poorly water soluble”.
